# Experimental data: PMC10948969 (Nature cancer, 2023)
# Columns and labels:
# [1] = test system: WNT reporter (TOP-GFP); assay: TOP-GFP Wnt reporter in MYC-CTNNB1 organoids; format: cell-based, mouse; details: 24 h after treatment
# [2] = target: ERK1 (Homo sapiens, UniProt P27361); assay: In vitro kinase assay with EZH2 T367 peptide, ERK; format: biochemical; details: inhibitor 1 μM, EZH2 peptide 1 μM
# [3] = test system: CTNNB1-mutated HCC (MYC-lucOS; CTNNB1); assay: Hydrodynamic tail-vein; format: in vivo, mouse; details: 5 d on and 2 d off
# [4] = Single-dose oral pharmacokinetics in BALB/c mice; format: in vivo, mouse
# [5] = target: p38 (MAPK14) (Homo sapiens, UniProt Q16539); assay: In vitro kinase assay with EZH2 T367 peptide, p38; format: biochemical; details: inhibitor 1 μM, EZH2 peptide 1 μM
# p38 (MAPK14), sequence (Q16539 whole entry): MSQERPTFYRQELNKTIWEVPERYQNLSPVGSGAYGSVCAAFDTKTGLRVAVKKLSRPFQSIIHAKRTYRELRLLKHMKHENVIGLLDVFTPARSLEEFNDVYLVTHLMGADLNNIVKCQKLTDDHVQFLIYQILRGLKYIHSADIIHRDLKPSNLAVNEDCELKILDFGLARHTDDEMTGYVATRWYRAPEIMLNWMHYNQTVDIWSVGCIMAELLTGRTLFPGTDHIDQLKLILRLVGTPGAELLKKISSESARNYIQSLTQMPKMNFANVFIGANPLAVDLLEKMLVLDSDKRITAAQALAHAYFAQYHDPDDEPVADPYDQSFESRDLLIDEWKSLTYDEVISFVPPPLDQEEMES
# [6] = test system: HEPG2 cells; assay: Drug toxicity; format: cell-based, human; details: 3 d
# [7] = test system: MYC-CTNNB1 tumor organoid allografts; assay: MYC-CTNNB1 tumor organoid allografts in C57BL/6 mice; format: in vivo, mouse; details: 30 mg kg−1 daily oral gavage, treatment from 100 mm3
# [8] = test system: MYC-Tp53 tumor organoid allografts; assay: MYC-Tp53 tumor organoid allografts in C57BL/6 mice; format: in vivo, mouse; details: 30 mg kg−1 daily oral gavage, treatment from 100 mm3
# [9] = test system: KIT, PDGFRα/β, VEGFR1/2, RET and FLT3; assay: Kinome profiling; format: binding; details: in vitro kinome selectivity profile
# [10] = In vivo dose escalation / tolerability in mice
# [11] = test system: MYC-CTNNB1 tumor organoids; assay: Drug toxicity; format: cell-based, mouse
# ERK1, sequence (P27361 whole entry): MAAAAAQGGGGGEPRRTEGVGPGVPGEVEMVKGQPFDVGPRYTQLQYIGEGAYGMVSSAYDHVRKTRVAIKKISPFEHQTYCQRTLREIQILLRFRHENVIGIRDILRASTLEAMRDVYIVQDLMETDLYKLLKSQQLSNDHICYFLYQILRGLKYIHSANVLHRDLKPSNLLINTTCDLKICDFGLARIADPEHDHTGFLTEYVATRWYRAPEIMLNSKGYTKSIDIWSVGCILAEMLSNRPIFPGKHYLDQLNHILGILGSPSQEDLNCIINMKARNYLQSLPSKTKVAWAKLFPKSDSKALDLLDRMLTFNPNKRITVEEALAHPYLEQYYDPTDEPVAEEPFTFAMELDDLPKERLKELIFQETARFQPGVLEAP
compound,measurement,setting,value
CCCc1cc(C)[nH]c(=O)c1CNC(=O)c1cc(-c2ccnc(N3CCN(C)CC3)c2)cc2c1cnn2C(C)C [GSK343],WNT-driven GFP reporter expression,[1],neither small molecule (MS1943 or GSK343) dampened the expression of the WNT reporter
Cc1cc(C)c(CNC(=O)c2cc(-c3ccc(N4CCN(CCNC(=O)CC56CC7CC(CC(C7)C5)C6)CC4)nc3)cc3c2cnn3C(C)C)c(=O)[nH]1 [MS1943],WNT-driven GFP reporter expression,[1],neither small molecule (MS1943 or GSK343) dampened the expression of the WNT reporter
CNC(=O)c1cc(Oc2ccc(NC(=O)Nc3ccc(C(F)(F)C(F)(F)F)cc3)c(F)c2)ccn1 [WNTinib],inhibition of EZH2 Thr367 peptide phosphorylation by ERK,[2],did not inhibit this phosphorylation in vitro
same,survival of remaining animals after the final dosing,[3]; 20 mg kg−1 oral,> 300 days
same,fraction of treatment arm that succumbed to death,"[3]; 20 mg kg−1 oral, started 7 d post-injection",40%
same,plasma concentration,"[4]; 24 h after oral dosing, 20 mg kg−1, BALB/c mice",7 µM
same,half-life,"[4]; BALB/c mice, oral, 20 mg kg−1",9.38 h
same,detectable quantities of drug in blood plasma post-dosing,"[4]; oral, 20 mg kg−1",up to 72 h
same,inhibition of EZH2 Thr367 peptide phosphorylation by p38,[5],did not inhibit this phosphorylation in vitro
same,efficacy with drug-resistant p38α (Thr106Met) or BRAF (Thr529Asn),[6]; HEPG2 transduced with gatekeeper mutants vs parental,largely unchanged
same,activity under MEK overexpression,"[6]; constitutively active MEK1 (Ser218Asp, Ser222Asp) in HEPG2",effectively eliminated WNTinib activity
same,shift of IC50 by MKK6 overexpression,"[6]; constitutively active MKK6 (Ser207Glu, Thr211Glu) vs parental HEPG2",~ 30 fold
same,efficacy under activated KIT overexpression,[6]; doxycycline-inducible activated KIT double mutant in HEPG2,greatly reduced
same,tumor regression,[7],induced significant tumor regression
same,anti-tumor activity,[8],inactive
same,inhibition of proposed key targets of sorafenib and regorafenib,[9],maintained potent inhibition
same,WNT-driven GFP reporter expression,[1],the only compound to downregulate WNT-driven GFP expression
same,phenotype on extended treatment,"[10]; mice treated for >3 weeks, consistent with on-target KIT inhibition",fur depigmentation
same,signs of sickness or toxicity,"[10]; three mouse strains, dosed daily for 2 weeks, oral dose escalation","No mice showed signs of sickness, or evident toxicity in the liver, intestine or kidney"
same,IC50,"[11]; read-out: IC50 in MYC-CTNNB1 organoids, without cKit knockdown, treated 3 d",< 1000 nM
same,combination index (CI) with dabrafenib,"[11]; titration of BRAF inhibitor dabrafenib, 3 d, CI > 1 = antagonized",> 1
same,combination index (CI) with SCF,"[11]; titration of KIT ligand SCF, 3 d, CI >1 = antagonized",> 1
same,combination index (CI) with SB202190,"[11]; titration of p38α/β inhibitor SB202190, 3 d, CI > 1 = antagonized",> 1
COc1cc2nccc(Oc3ccc(NC(=O)NC4CC4)c(Cl)c3)c2cc1C(N)=O [lenvatinib],anti-tumor activity,[8],measurable anti-tumor activity
CNC(=O)c1cc(Oc2ccc(NC(=O)Nc3ccc(Cl)c(C(F)(F)F)c3)c(F)c2)ccn1 [regorafenib],anti-tumor activity,[8],measurable anti-tumor activity
"CNC(=O)c1cc(Oc2ccc(NC(=O)Nc3ccc(Cl)c(C(F)(F)F)c3)cc2)ccn1 [sorafenib, reference compound]",survival benefit,"[3]; 30 mg kg−1 oral, started 7 d post-injection",7.5 days
same,half-life,"[4]; female, BALB/c, mouse, plasma, po, 20 mg/kg",8 h
same,anti-tumor activity,[8],measurable anti-tumor activity
